Experimental data published in US20110082130A1 (LIGAND PHARMACEUTICALS, INC., priority 2006, published 2011).

Target: T1, chimeric human H3 receptor (Homo sapiens, UniProt Q9Y5N1)
T1 construct: made in house; host or cells: Sf9 insect cells (baculovirus); P2 membrane preparation
Test: Chimeric human H3 receptor GTP binding assay (agonist-stimulated GTP-gamma35S binding, Example 7)
Format: biochemical
Details: Table I; P2 membranes of Sf9 cells, 1 μM histamine as agonist, Ki from IC50 by Cheng-Prusoff
Outline: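 Sf9 membranes co-expressing chimeric human H3 receptor and heterotrimeric G-protein, 35 μg/tube, in pH 7.4 Tris buffer with 10 μM GDP. Test compounds (10^−10–10^−6 M) competed against 1 μM histamine, […] GTP-gamma35S, 60 min at room temperature. Filter-bound radioactivity counted; IC50 converted to Ki by Cheng-Prusoff. Agonism/inverse agonism tested without histamine (EC50).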

T1 sequence (Q9Y5N1 with tags, fused parts or gaps): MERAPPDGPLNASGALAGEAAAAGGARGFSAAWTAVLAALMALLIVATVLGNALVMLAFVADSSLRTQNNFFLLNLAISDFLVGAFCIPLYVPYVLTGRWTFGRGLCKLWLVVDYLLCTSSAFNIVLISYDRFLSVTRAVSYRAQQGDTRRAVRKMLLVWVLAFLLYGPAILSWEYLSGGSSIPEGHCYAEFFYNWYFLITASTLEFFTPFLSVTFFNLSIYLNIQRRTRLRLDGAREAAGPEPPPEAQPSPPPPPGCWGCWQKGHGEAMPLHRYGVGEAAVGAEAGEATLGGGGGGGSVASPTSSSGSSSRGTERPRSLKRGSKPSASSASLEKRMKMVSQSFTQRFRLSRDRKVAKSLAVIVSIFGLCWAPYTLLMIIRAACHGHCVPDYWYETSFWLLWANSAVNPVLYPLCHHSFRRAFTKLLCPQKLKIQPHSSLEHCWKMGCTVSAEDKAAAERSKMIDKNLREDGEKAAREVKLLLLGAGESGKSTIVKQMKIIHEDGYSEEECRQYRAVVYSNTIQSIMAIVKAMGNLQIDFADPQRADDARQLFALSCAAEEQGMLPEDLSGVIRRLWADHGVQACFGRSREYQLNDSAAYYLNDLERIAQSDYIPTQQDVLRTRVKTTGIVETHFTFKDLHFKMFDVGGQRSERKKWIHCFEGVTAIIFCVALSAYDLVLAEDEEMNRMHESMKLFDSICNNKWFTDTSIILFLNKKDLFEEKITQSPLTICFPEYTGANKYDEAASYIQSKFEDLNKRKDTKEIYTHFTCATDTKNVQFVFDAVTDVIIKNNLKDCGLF

Ki, < 1000 nM:
CC(=O)c1ccc(-c2ncnc3c2CCN(CC(=O)N2CCN(C4CCC4)CC2)CC3)cc1 [Compound 79, 1-(4-{7-[2-(4-cyclobutylpiperazin-1-yl)-2-oxoethyl]-6,7,8,9-tetrahydro-5H-pyrimido[4,5-d]azepin-4-yl}phenyl)ethanone]
CC(C)N1CCN(C(=O)CN2CCc3ccccc3C2c2ccccc2F)CC1 (centres unmarked) [Compound 58, 1-(2-fluorophenyl)-2-[2-(4-isopropylpiperazin-1-yl)-2-oxoethyl]-1,2,3,4-tetrahydroisoquinoline]
CNC(=O)c1ccc(-c2ccc3c(c2)CCN(CC(=O)N2CCN(C4CCC4)CC2)C3)cc1 [Compound 72, 4-{2-[2-(4-cyclobutylpiperazin-1-yl)-2-oxoethyl]-1,2,3,4-tetrahydroisoquinolin-6-yl}-N-methylbenzamide]
CC(C)N1CCN(C(=O)CN2CCc3ccccc3C2c2ccccc2Cl)CC1 (centres unmarked) [Compound 59, 1-(2-chlorophenyl)-2-[2-(4-isopropylpiperazin-1-yl)-2-oxoethyl]-1,2,3,4-tetrahydroisoquinoline]
N#Cc1ccc2c(c1)CCN(CC(=O)N1CCN(C3CCC3)CC1)C2 [Compound 69, 2-[2-(4-cyclobutylpiperazin-1-yl)-2-oxoethyl]-1,2,3,4-tetrahydroisoquinoline-6-carbonitrile]

Same assay, conditions: Table II "Ki", symbol *; assay of Example 7

Ki, < 1000 nM:
COc1cc(F)c(-c2ccc3c(c2)CCN(CC(=O)N2CCN(C4CCC4)CC2)C3)cc1F [Compound 506, 2-[2-(4-cyclobutylpiperazin-1-yl)-2-oxoethyl]-6-(2,5-difluoro-4-methoxyphenyl)-1,2,3,4-tetrahydroisoquinoline]
CC(C)CNc1ccc2c(n1)CCN(CC(=O)N1CCN(C3CCC3)CC1)C2 [Compound 651, 6-[2-(4-cyclobutylpiperazin-1-yl)-2-oxoethyl]-N-isobutyl-5,6,7,8-tetrahydro-1,6-naphthyridin-2-amine]
CC1CCCCC1N1CCN(C(=O)CN2CCc3cc(-c4cncnc4)ccc3C2)CC1 (centres unmarked) [Compound 619, 2-{2-[4-(2-methylcyclohexyl)piperazin-1-yl]-2-oxoethyl}-6-pyrimidin-5-yl-1,2,3,4-tetrahydroisoquinoline]
COc1ccc(-c2ccc3c(c2)CCN(CC(=O)N2CCN(C4CCCC4)CC2)C3)cc1 [Compound 521, 2-[2-(4-cyclopentylpiperazin-1-yl)-2-oxoethyl]-6-(4-methoxyphenyl)-1,2,3,4-tetrahydroisoquinoline]
O=C(CN1CCc2cc(-c3nccc(C(F)(F)F)n3)ccc2C1)N1CCN(C2CCC2)CC1 [Compound 636, 2-[2-(4-cyclobutylpiperazin-1-yl)-2-oxoethyl]-6-[4-(trifluoromethyl)pyrimidin-2-yl]-1,2,3,4-tetrahydroisoquinoline]
CCC(CC)CNc1ccc2c(n1)CCN(CC(=O)N1CCN(C3CCC3)CC1)C2 [Compound 660, 6-[2-(4-cyclobutylpiperazin-1-yl)-2-oxoethyl]-N-(2-ethylbutyl)-5,6,7,8-tetrahydro-1,6-naphthyridin-2-amine]
CN(C)CCc1ccccc1-c1ccc2c(c1)CCN(CC(=O)N1CCN(C3CCC3)CC1)C2 [Compound 643, 2-(2-{2-[2-(4-cyclobutylpiperazin-1-yl)-2-oxoethyl]-1,2,3,4-tetrahydroisoquinolin-6-yl}phenyl)-N,N-dimethylethanamine]

Same assay, conditions: Table II; "*" = Ki in assay of Example 7 less than 1 micromolar

Ki, < 1000 nM:
O=C(CN1CCc2cc(N3CCOCC3)nnc2C1)N1CCN(C2CCC2)CC1 [Compound 220, 7-[2-(4-cyclobutylpiperazin-1-yl)-2-oxoethyl]-3-morpholin-4-yl-5,6,7,8-tetrahydropyrido[3,4-c]pyridazine]
O=C(CN1CCc2nn(-c3ccc(N4CCCC4)nn3)cc2C1)N1CCN(C2CCC2)CC1 [Compound 258, 5-[2-(4-cyclobutylpiperazin-1-yl)-2-oxoethyl]-2-(6-pyrrolidin-1-ylpyridazin-3-yl)-4,5,6,7-tetrahydro-2H-pyrazolo[4,3-c]pyridine]
CC1CN(c2ccc3c(n2)CCN(CC(=O)N2CCN4C(C)CCC[C@H]4C2)C3)CC(C)O1 (stereo in doubt) [Compound 179, 2-(2,6-dimethylmorpholin-4-yl)-6-[2-(6-methyloctahydro-2H-pyrido[1,2-a]pyrazin-2-yl)-2-oxoethyl]-5,6,7,8-tetrahydro-1,6-naphthyridine]
O=C(CN1CCc2nc(C3CC3)ncc2C1)N1CCN(C2CCC2)CC1 [Compound 276, 6-[2-(4-cyclobutylpiperazin-1-yl)-2-oxoethyl]-2-cyclopropyl-5,6,7,8-tetrahydropyrido[4,3-d]pyrimidine]
O=C(CN1CCc2nn(-c3cncc(N4CCCC4)n3)cc2C1)N1CCN(C2CCC2)CC1 [Compound 268, 5-[2-(4-cyclobutylpiperazin-1-yl)-2-oxoethyl]-2-(6-pyrrolidin-1-ylpyrazin-2-yl)-4,5,6,7-tetrahydro-2H-pyrazolo[4,3-c]pyridine]
Cc1ccc(-c2ccc3c(c2)CCN(CC(=O)N2CCN(C4CCCC4C)CC2)C3)nn1 (centres unmarked) [Compound 190, 2-{2-[4-(2-methylcyclopentyl)piperazin-1-yl]-2-oxoethyl}-6-(6-methylpyridazin-3-yl)-1,2,3,4-tetrahydroisoquinoline]
CCOC(=O)c1cnc2c(c1)CCN(CC(=O)N1CCN(C3CCC3)CC1)C2 [Compound 116, ethyl 7-[2-(4-cyclobutylpiperazin-1-yl)-2-oxoethyl]-5,6,7,8-tetrahydro-1,7-naphthyridine-3-carboxylate]
O=C(CN1CCc2cc(-c3ncccn3)ccc2C1)N1CCN(C2CCC2)CC1 [Compound 131, 2-[2-(4-cyclobutylpiperazin-1-yl)-2-oxoethyl]-6-pyrimidin-2-yl-1,2,3,4-tetrahydroisoquinoline]
O=C(CN1CCc2nc(-c3cncnc3)ccc2C1)N1CCN(C2CCC2)CC1 [Compound 171, 6-[2-(4-cyclobutylpiperazin-1-yl)-2-oxoethyl]-2-pyrimidin-5-yl-5,6,7,8-tetrahydro-1,6-naphthyridine]
CC(=O)c1ccc2c(c1)CCN(CC(=O)N1CCN3CCCCC3C1)C2 (centres unmarked) [Compound 154, 1-{2-[2-(octahydro-2H-pyrido[1,2-a]pyrazin-2-yl)-2-oxoethyl]-1,2,3,4-tetrahydroisoquinolin-6-yl}ethanone]
CC1CCC[C@H]2CN(C(=O)CN3CCc4cc(Br)ccc4C3)CCN12 (stereo in doubt) [Compound 146, 2-[(6-bromo-3,4-dihydroisoquinolin-2(1H)-yl)acetyl]-6-methyloctahydro-2H-pyrido[1,2-a]pyrazine]
O=C(CN1CCc2cc(Br)ccc2C1)N1CCN2CCCCC2C1 (centres unmarked) [Compound 148, 2-[(6-bromo-3,4-dihydroisoquinolin-2(1H)-yl)acetyl]octahydro-2H-pyrido[1,2-a]pyrazine]
CN(C)c1ccc(-n2cc3c(n2)CCN(CC(=O)N2CCN(C4CCC4)CC2)C3)nn1 [Compound 259, 6-{5-[2-(4-cyclobutylpiperazin-1-yl)-2-oxoethyl]-4,5,6,7-tetrahydro-2H-pyrazolo[4,3-c]pyridin-2-yl}-N,N-dimethylpyridazin-3-amine]

Same assay, conditions: assay of Example 7; "*" in Ki of Table II

Ki, < 1000 nM:
O=C(CN1CCc2nc(-c3ccc(Cl)cc3)sc2C1)N1CCN(C2CCC2)CC1 [Compound 296, 2-(4-chlorophenyl)-5-[2-(4-cyclobutylpiperazin-1-yl)-2-oxoethyl]-4,5,6,7-tetrahydro[1,3]thiazolo [5,4-c]pyridine]
CSc1cccc(-c2nc3c(s2)CN(CC(=O)N2CCN(C4CCC4)CC2)CC3)c1 [Compound 320, 5-[2-(4-cyclobutylpiperazin-1-yl)-2-oxoethyl]-2-[3-(methylthio)phenyl]-4,5,6,7-tetrahydro[1,3]thiazolo [5,4-c]pyridine]
CC(C)c1ccc(-c2nc3c(s2)CN(CC(=O)N2CCN(C4CCC4)CC2)CC3)cc1 [Compound 307, 5-[2-(4-cyclobutylpiperazin-1-yl)-2-oxoethyl]-2-(4-isopropylphenyl)-4,5,6,7-tetrahydro[1,3]thiazolo [5,4-c]pyridine]
COc1ccc(-c2nc3c(s2)CN(CC(=O)N2CCN(C4CCC4)CC2)CC3)c(OC)c1 [Compound 340, 5-[2-(4-cyclobutylpiperazin-1-yl)-2-oxoethyl]-2-(2,4-dimethoxyphenyl)-4,5,6,7-tetrahydro[1,3]thiazolo [5,4-c]pyridine]
CC(C)c1cccc(-c2nc3c(s2)CN(CC(=O)N2CCN(C4CCC4)CC2)CC3)c1 [Compound 306, 5-[2-(4-cyclobutylpiperazin-1-yl)-2-oxoethyl]-2-(3-isopropylphenyl)-4,5,6,7-tetrahydro[1,3]thiazolo [5,4-c]pyridine]
CC(C)n1cc(-c2ccc3c(c2)CCN(CC(=O)N2CCN(C4CCC4)CC2)C3)ccc1=O [Compound 282, 5-{2-[2-(4-cyclobutylpiperazin-1-yl)-2-oxoethyl]-1,2,3,4-tetrahydroisoquinolin-6-yl}-1-isopropylpyridin-2(1H)-one]
Cc1cc(C)cc(-c2nc3c(s2)CN(CC(=O)N2CCN(C4CCC4)CC2)CC3)c1 [Compound 310, 5-[2-(4-cyclobutylpiperazin-1-yl)-2-oxoethyl]-2-(3,5-dimethylphenyl)-4,5,6,7-tetrahydro[1,3]thiazolo [5,4-c]pyridine]
